Measured values taken from patent US20230079439A1, “Compositions and Methods for Enhancing Beta Cell Maturation, Health and Function” (THE REGENTS OF THE UNIVERSITY OF CALIFORNIA, priority 2016, published 2023).
Ends that are not written are not given here.

Test system: INS-1E cells
Experiment: Glucose-stimulated insulin secretion (GSIS) in INS-1E cells
Format: cell-based, rat
Description: FIG. 3, comprising FIG. 3A through FIG. 3D, depicts the evaluation of the biological activity of HSA-112 in INS-1E cells. FIG. 3A depicts a dose-response analysis of the effect of HSA-112 on the rate of insulin secretion in INS-1E cells. The INS-1E cells were grown and treated with increasing doses of HSA-112 for 24 h, as described in Methods. Subsequently, cells were mixed with different concentrations of HSA-112, as indicated in the graph (red columns), PEG2000 (green columns), and free peptide (blue columns) and were seeded in 12-well plates. After 24 h the cells were taken to a GSIS in the presence of 2.5 mM (weak color bars) or 16.7 mM (strong color bars) glucose. FIG. 3B depicts the time-course analysis of the effect of HSA-112 on the rate of insulin secretion in INS-1E cells. The INS-1E cells were prepared for the experiment as described above with 50 μM of HSA-112, PEG2000, or free peptide. After incubation, as indicated in the graph, the cells were taken to a GSIS as described above. FIG. 3C depicts the cell protective effect of HSA-112 under oxidative stress conditions. Cells were prepared for the experiment as described in Methods. Trolox was used as a positive control at a concentration of 100 μM. The oxidative stress was induced in the tissue culture, as described in Methods. Standard MTT analysis (also described in Methods) was used for evaluating the effect of HSA-112 on cell viability. FIG. 3D depicts INS-1E cell proliferation. Cells were prepared for the experiment as described above. After 24 h the cells were colored by trypan blue and counted as described in Methods *p<0.05, n=6. MEAN±SE.
FIG. 7, comprising FIG. 7A through FIG. 7G, depicts the evaluation of the biological activity of HSA-28P in INS-1E cells. FIG. 7A depicts dose-response analysis of the effect of HSA-28P on the rate of insulin secretion in INS-1E cells. The INS-1E cells were grown and trypsinized as described in Methods. Subsequently, cells were mixed with the indicated concentrations of HSA-28P (red columns), non-relevant peptide nanoparticles (NRPNP, green columns), and naked nanoparticles (NP, blue columns) and were seeded in 12-well plates. After 24 h the cells were taken to a GSIS in the presence of 2.5 mM (weak color bars) or 16.7 mM (strong color bars) glucose. FIG. 7B depicts time-course analysis of the effect of HSA-28P on the rate of insulin secretion in INS-1E cells. The INS-1E cells were prepared for the experiment as described above with 1.34 μM of both HSA-28P or NRPNP, and 0.76 μg/ml of NP. After incubation for the time indicated in the graph, the cells were taken to a GSIS as described in Methods. FIG. 7C depicts the measurement of insulin content. The RIA-assay was performed for INS-1E lysates. FIG. 7D depicts the Effect of HSA-28P on the cells viability under oxidative stress conditions. INS-1E cells were incubated for 24 h with a medium supplemented with HSA-28P (3 μM), or HSA-28P1/2 (1.5 μM), or NPs covered by phantom random peptide (PPNP, 3 μM), or NP (0.76 μg/ml), or HSA-28 (3 μM) and trolox, as a positive antioxidant control (1 mM). After the incubation time, 50 mU/ml of glucose oxidase (GO) was added for an additional 1.15 h. Upon completion of the experiments, a standard MTT assay was conducted as described in Methods. Cell viability is presented as a percentage in comparison to non-treated cells. FIG. 7E depicts the effect of HSA-28P on the cell proliferation rate. Experiments were conducted on INS-1E cells that were seeded in 6-well plates. INS-1E cells were treated as described in Panel D. Cells were detached by trypsin and counted as described in Methods and then were visualized with a Cells Sense Live Imaging microscope. FIG. 7F depicts light microscope images of untreated cells. FIG. 7G depicts light microscope images of cells that were treated with HSA-28P. *p<0.05, n=3. MEAN±SE. […]

For “HSA-112: HSA-28 dimer formed by bridging two HSA-28 monomers via amide bond formation with active ester PEG2,000 (QQGEFLNYD-NH2; not fully specified (N-terminus); also: dimer of two HSA-28 monomers bridged via amide bonds with active ester PEG2000)”, the “duration of the increase in insulin secretion” value (50 μM) was 24 h, the “time after which a significant increase in insulin secretion was induced” value (50 μM) was 6 h and the “time of maximal stimulatory effect” value (50 μM) was 18 h. For the same substance, the “maximal stimulatory effect on GSIS parameters” value (50 μM, after 18 h) was “twofold elevation of GSIS parameters” and the “effect on GSIS” value (INS-1E cells, 2.5 mM or 16.7 mM glucose) was “dose-dependently increased GSIS”.
